Assay results: paper PMC6256351, “Stereoselective Synthesis of the Isomers of Notoincisol A: Assigment of the Absolute Configuration of this Natural Product and Biological Evaluation” (Journal of Natural Products, 2018)

Molecular target: T1, PPARγ (peroxisome proliferator-activated receptor gamma) (Homo sapiens, UniProt P37231)
T1 construct: gene PPARG; full-length human PPARγ
T1 sequence (P37231 1-505): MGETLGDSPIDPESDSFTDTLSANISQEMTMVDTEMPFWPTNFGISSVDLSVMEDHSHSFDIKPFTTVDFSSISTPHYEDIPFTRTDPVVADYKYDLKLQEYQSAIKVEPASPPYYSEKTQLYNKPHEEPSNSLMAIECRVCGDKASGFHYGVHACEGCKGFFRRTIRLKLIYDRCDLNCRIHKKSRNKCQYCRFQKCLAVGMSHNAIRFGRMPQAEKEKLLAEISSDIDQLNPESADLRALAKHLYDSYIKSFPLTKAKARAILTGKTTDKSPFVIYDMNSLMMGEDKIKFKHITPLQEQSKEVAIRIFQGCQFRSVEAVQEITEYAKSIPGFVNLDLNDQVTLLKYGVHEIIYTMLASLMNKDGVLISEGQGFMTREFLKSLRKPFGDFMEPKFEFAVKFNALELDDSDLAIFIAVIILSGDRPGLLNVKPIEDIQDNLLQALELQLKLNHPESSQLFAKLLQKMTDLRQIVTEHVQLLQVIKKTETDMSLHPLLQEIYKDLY
Test: luciferase reporter gene transactivation in HEK293 cells transfected with PPARγ
Type: cell-based

## C=C[C@@H](O)C#CC#C[C@H](/C=C\CCCCCCC)OC(=O)/C=C/c1ccc(O)c(OC)c1 [3R,8S-1, (3R,8S)-Notoincisol A]
  EC50: 1200 nM
